Patent publication US20100055066A1, “Agent for prophylactic and/or therapeutic treatment of diabetes” (priority 2004, published 2010)

Tests used:
Format in all cases: in vivo
cyp7α = test: Liver cyp7α gene expression by quantitative PCR after FXR agonist (Example 2); details: KKAy mice, 10 mg/kg orally for 4 days, liver on 5th day, FIG. 6-1
Experimental: (§1) An FXR agonist, GW-4064 (J. Med. Chem., vol. 43(16), pp. 2971-2974, 2000), was orally administered in a dosage of 10 mg/kg for 4 days. On the 5th day, mice were dissected to isolate the livers.

SHP = test: Liver SHP gene expression by quantitative PCR after FXR agonist (Example 2); details: KKAy mice, 10 mg/kg orally for 4 days, liver on 5th day, FIG. 6-2
Experimental: as §1

PEPCK = test: Liver PEPCK gene expression by quantitative PCR after FXR agonist (Example 2); details: KKAy mice, 10 mg/kg orally for 4 days, liver on 5th day, FIG. 7
Experimental: as §1

## CC(C)c1onc(-c2c(Cl)cccc2Cl)c1COc1ccc(/C=C/c2cccc(C(=O)O)c2)c(Cl)c1 [GW-4064]
cyp7α
  expression level of the gene for cyp7α in the liver compared with control group: decreased
SHP
  expression level of the gene for SHP in the liver compared with control group: increased
PEPCK
  expression level of the gene for PEPCK in the liver compared with control group: increased
